Assay: gradient 5% acetonitrile 3 min, to 50% in 2 min, to 85% in 15 min, held 3 min, 100 µL/min
Conditions: column: Zorbax Extend-C18 2.1 x 50 mm; eluents: water / acetonitrile, 0.1% formic acid
Outline: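 Pure standards were analyzed in mixtures of ~100 molecules using HPLC coupled to a quadrupole time-of-flight mass spectrometer, in both positive and negative ionization mode. Separation used a Zorbax Extend-C18 column (2.1 × 50 mm, 1.8 μm) at 100 μL/min, with water and acetonitrile each containing 0.1% formic acid. Dead and dwell volumes were 40 μL and 900 μL, and data were collected over 3 months. Retention time was read from computationally picked adduct peaks, each inspected manually.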

Compound: c1cc(-c2nc(-c3ccc(-c4csc(C5CC5)n4)cc3)no2)ccn1
- RP-LC retention time: 1290 s

Compound: CC1(O)CCOC2(CCN(Cc3ccccc3OC(F)(F)F)CC2)C1 (stereo not given)
- RP-LC retention time: 632 s

Compound: O=C(COc1ccccc1F)Nc1nnc(C2CCCCC2)o1
- RP-LC retention time: 766 s

Compound: CSc1ccc(NC(=O)Nc2cc(C)ccn2)cc1
- RP-LC retention time: 782 s

Compound: O=C(c1ccc(F)cc1F)N1CCC2(CC1)N=C(c1ccc(Cl)cc1)NO2
- RP-LC retention time: 900 s

Compound: Cc1ccn2cc(C(=O)N3CCN(c4ccc(Cl)cc4)CC3)nc2c1
- RP-LC retention time: 715 s

Compound: CCOC(=O)c1oc2ccccc2c1NC(=O)c1ccc([N+](=O)[O-])s1
- RP-LC retention time: 1040 s

Compound: COc1ccc(OC)c(S(=O)(=O)N2CC(=O)N(C3CCCC3)C3(CCCCC3)C2)c1
- RP-LC retention time: 1090 s

Compound: COc1ccc(Cc2nn3c(CSc4ccccc4)nnc3s2)cc1OC
- RP-LC retention time: 865 s

Compound: O=C(NC1CCCCC1)C1CCCN(c2ncnc3c2oc2ccccc23)C1 (stereo not given)
- RP-LC retention time: 758 s

Compound: COc1ccc(C(C)NC(=O)C2CCCN(c3cnc4nccnc4c3)C2)cc1OC (stereo not given)
- RP-LC retention time: 663 s

Compound: COCCCNC(=O)Cc1cn(C)c2ncccc12
- RP-LC retention time: 576 s

Compound: Cn1cnnc1SCCNC(=O)CCc1cccc(Oc2ccc(F)cc2)c1
- RP-LC retention time: 697 s

Compound: O=C(CN1CCN(c2ccc3c(c2)OCCO3)C1=O)NCc1nc(-c2ccccc2)no1
- RP-LC retention time: 745 s

Compound: Cc1cccc(C)c1NC(=O)N1CCN(CCn2c(C(C)C)nc3cccnc32)CC1
- RP-LC retention time: 602 s

Compound: CCCN1C(=O)c2cc(S(=O)(=O)NCc3cccs3)ccc2Oc2cccnc21
- RP-LC retention time: 988 s

Compound: O=C1OCC/C1=C\OCCCO/C=C1\CCOC1=O
- RP-LC retention time: 716 s

Compound: Cc1cc(N2CCN(C)CC2)nc2ccc(NC(=S)NCc3cccs3)cc12
- RP-LC retention time: 576 s

Compound: Cn1nccc1-c1cccc(-c2noc(Cc3ccc(Cl)cc3)n2)c1
- RP-LC retention time: 1130 s

Compound: CCn1cc(-c2ccc(C)cc2)cc1C(=O)NCCN(C)C
- RP-LC retention time: 680 s

Compound: Cc1nn(CCCC(=O)NCc2ccc3c(c2)OCO3)c(=O)c2nn(-c3ccccc3)c(C)c12
- RP-LC retention time: 704 s

Compound: CCCS(=O)(=O)c1nc2ccc(NS(C)(=O)=O)cc2s1
- RP-LC retention time: 755 s

Compound: CCCN1C(=O)c2c(C(=O)NCc3ccc(Cl)cc3)ncn2CC1(C)C(=O)NCCC(C)C (stereo not given)
- RP-LC retention time: 868 s

Compound: CCOc1ccc(-c2noc(Cc3nc(-c4cccc(OC)c4)cs3)n2)cc1
- RP-LC retention time: 1230 s

Compound: O=C(c1ccsc1)N1CCN(C(=O)c2cc(-c3ccccn3)n[nH]2)CC1
- RP-LC retention time: 614 s

Compound: N#Cc1ccc(S(=O)(=O)N2CC(c3nc(CCOCc4ccccc4)no3)C2)cc1
- RP-LC retention time: 980 s

Compound: CCOc1ccc(NC(=O)Cn2nc(N3CCC(C)CC3)c3ccccc3c2=O)cc1
- RP-LC retention time: 1130 s

Compound: O=C(c1ccc(F)c(F)c1)N1CCN(c2cc(-c3cccnc3)[nH]n2)CC1
- RP-LC retention time: 615 s

Compound: COc1ccc(Br)c(CC2C(=O)Nc3ccccc32)c1 (stereo not given)
- RP-LC retention time: 944 s

Compound: O=C(c1ccc(-c2noc(C3CC3)n2)cc1)N1CCN(c2nc3cccnc3o2)CC1
- RP-LC retention time: 793 s

Compound: Cn1ccnc1SCC(=O)Nc1nc(-c2ccc(Cl)cc2)cs1
- RP-LC retention time: 690 s

Compound: Cc1cc(F)ccc1N1C(=O)CN(S(C)(=O)=O)CC1(C)C(=O)NC1CCCCC1 (stereo not given)
- RP-LC retention time: 822 s

Compound: COc1ccc(NC(=O)C2CCCN2S(=O)(=O)c2ccc3c(c2)N(C(C)=O)CCO3)cc1 (stereo not given)
- RP-LC retention time: 762 s

Compound: O=C(Cn1nc2n(c1=O)CCCC2)Nc1ccccc1
- RP-LC retention time: 633 s

Compound: O=C(CN1C(=O)CCSc2ccccc21)NCCCN1CCN(Cc2ccccc2)CC1
- RP-LC retention time: 614 s

Compound: COc1ccc2c(C)c(CCC(=O)N[C@H](C(=O)O)c3ccccc3)c(=O)oc2c1OC
- RP-LC retention time: 719 s

Compound: Cn1cc(-c2ccncc2)cc1C(=O)N1CCN(c2ccccc2F)CC1
- RP-LC retention time: 650 s

Compound: COc1cc(OC)cc(-c2noc(-c3nnn(Cc4nc(-c5cccc(C)c5)oc4C)c3C)n2)c1
- RP-LC retention time: 1280 s

Compound: O=C(Nc1cnn(-c2ncc(N3CCCCC3)cn2)c1)c1ccc(C(F)(F)F)cc1
- RP-LC retention time: 1010 s

Compound: Cc1ccc(CNC(=O)Cn2c(=O)c(CCC(=O)NCC(C)C)nc3ccccc32)cc1
- RP-LC retention time: 814 s

Compound: CC1CN(C(=O)c2cc3cc([N+](=O)[O-])ccc3s2)CC(C)O1 (stereo not given)
- RP-LC retention time: 780 s

Compound: COc1ccccc1CNC(=O)Cn1cc(C(=O)N2CCCC2)c(=O)c2ccc(C)nc21
- RP-LC retention time: 681 s

Compound: O=C(Cn1nc(S(=O)(=O)c2ccc(Cl)cc2)ccc1=O)N1CCN(c2ccc(F)cc2)CC1
- RP-LC retention time: 910 s

Compound: Cc1nnc(N2CCCC(C(=O)N3CCC4(CC3)OCCO4)C2)c2nn(-c3ccccc3)c(C)c12 (stereo not given)
- RP-LC retention time: 660 s

Compound: COc1ccc(OCC2c3cc(OC)c(OC)cc3CCN2C(=O)CC(C)C)cc1 (stereo not given)
- RP-LC retention time: 891 s

Compound: CCN1CCC2(CC1)N=C(c1ccc(C)cc1C)CC(c1cc(Cl)ccc1O)N2 (stereo not given)
- RP-LC retention time: 668 s

Compound: O=S(=O)(NCCC1=CCCCC1)c1ccc(-c2cc(C(F)(F)F)on2)o1
- RP-LC retention time: 1240 s

Compound: COc1ccc(-c2nc(NCCCN3CCC(N4CCCCC4)CC3)c3ccccc3n2)cc1
- RP-LC retention time: 1210 s

Compound: N#CC1=CN(c2ccc(F)c(F)c2)c2ccc(F)cc2S1(=O)=O
- RP-LC retention time: 934 s

Compound: CN(C)C(CNC(=O)Nc1ccccc1C(F)(F)F)c1ccco1 (stereo not given)
- RP-LC retention time: 566 s

Compound: Cc1nc(-c2csc(S(=O)(=O)N3CCCC(C(=O)Nc4ccc(F)c(Cl)c4)C3)c2)no1 (stereo not given)
- RP-LC retention time: 1010 s

Compound: COCc1nc2cccnc2n1C1CCN(C(=O)Nc2ccc(Br)c(C)c2)CC1
- RP-LC retention time: 753 s

Compound: Cn1c(C(=O)NCc2ccccc2Cl)cc2sc(Cl)cc21
- RP-LC retention time: 1260 s

Compound: Cc1ccc2nc(C(=O)NCc3ccccc3Cl)cn2c1
- RP-LC retention time: 718 s

Compound: CCCCn1cc(S(=O)(=O)N2CCN(c3cccc(Cl)c3)CC2)c2cccnc21
- RP-LC retention time: 1250 s

Compound: CCCNC(=O)N1CCCCCC1CN1CCCC1 (stereo not given)
- RP-LC retention time: 580 s

Compound: CCn1cc(CN2CCC(C(=O)NCC3CCCCC3)CC2)c2cc(OC)ccc21
- RP-LC retention time: 736 s

Compound: O=C(c1cc(F)ccc1F)N1CCN(c2cc(-c3ccc(F)cc3)[nH]n2)CC1
- RP-LC retention time: 807 s

Compound: Cc1ccc(S(=O)(=O)N(C)CC2CCOCC2)cc1C
- RP-LC retention time: 886 s

Compound: CCC(C)NC(=O)Nc1cc2c(cc1Oc1ccccc1)n(C)c(=O)n2C (stereo not given)
- RP-LC retention time: 853 s

Compound: O=C(CN1CCN(C(=O)c2ccco2)CC1)Nc1cc(Cl)ccc1Cl
- RP-LC retention time: 704 s

Compound: COc1ccc(-c2nc(NC(=O)c3ccc(C#N)cc3)sc2C)cc1
- RP-LC retention time: 962 s

Compound: CC1CCCN(S(=O)(=O)c2ccc(-n3cnc(C(=O)N4CCCCC4)c3)nc2)C1 (stereo not given)
- RP-LC retention time: 881 s

Compound: Cc1c(C(=O)NC2CCS(=O)(=O)C2)nnn1-c1ccccc1F (stereo not given)
- RP-LC retention time: 656 s

Compound: COc1ccc(-c2nc(-c3ccc(NS(C)(=O)=O)cc3)no2)c(OC)c1
- RP-LC retention time: 885 s

Compound: Cc1cc2[nH]c(C(=O)Nc3cc(F)cc(F)c3)c(CN(C)C)c2s1
- RP-LC retention time: 715 s

Compound: O=C(CCc1nc2ccccc2s1)N1C[C@H]2CNC(=O)[C@]23CCCC[C@@H]13
- RP-LC retention time: 705 s

Compound: O=C(NCC1CC1)c1c(OCC2CC2)cc(=O)n2c1CCCCC2
- RP-LC retention time: 688 s

Compound: CC(=O)N1c2ccc(S(=O)(=O)N3CCCCCC3)cc2CC1C(=O)NCc1ccc(F)cc1 (stereo not given)
- RP-LC retention time: 890 s

Compound: Cc1nnc2n1CCN(C(=O)Cc1c(F)cccc1Cl)C2
- RP-LC retention time: 616 s

Compound: CCN(Cc1ccccc1)C(=O)Cn1cc2c(n1)CCCCCC2
- RP-LC retention time: 1020 s

Compound: COc1cc(C)c(Br)cc1S(=O)(=O)N1CCC(C(N)=O)CC1
- RP-LC retention time: 697 s

Compound: Cc1ccc(CN2CCN(CC(=O)Nc3cccc(C(F)(F)F)c3)C(=O)C2=O)cc1
- RP-LC retention time: 939 s

Compound: Cc1noc(C)c1CCC(=O)N1CCCn2ccnc2C1C1CCCC1 (stereo not given)
- RP-LC retention time: 613 s

Compound: CCc1nnc(-c2ccc3ccn(CC(=O)N4CCN(c5ccc(Cl)cc5)CC4)c3c2)o1
- RP-LC retention time: 965 s

Compound: CSc1ccccc1CN1CCC(CNC(=O)c2ccco2)CC1
- RP-LC retention time: 548 s

Compound: CCn1nccc1-c1cccc(-c2noc(C3(c4ccc(OC)cc4)CC3)n2)c1
- RP-LC retention time: 1240 s

Compound: COc1cc(OC)c(NC(=O)CN2C(=O)C(C)(C)c3ccccc32)cc1Cl
- RP-LC retention time: 954 s

Compound: CCN(CC)S(=O)(=O)c1ccc2c(c1)CC(C(=O)N1CCOCC1)N2C(C)=O (stereo not given)
- RP-LC retention time: 663 s

Compound: CCN1c2ccccc2C(=O)NC12CCN(C(=O)c1ccccc1OC)CC2
- RP-LC retention time: 732 s

Compound: CC(=O)N1CCC2(CC1)NC(=O)c1cccc(C)c1O2
- RP-LC retention time: 650 s

Compound: CC(C)c1cc(=O)n2c(n1)SCC2CC(=O)Nc1cccc(F)c1 (stereo not given)
- RP-LC retention time: 763 s

Compound: Cc1cc(OCC(=O)Nc2cccc(Br)c2)nc(N2CCCC2)n1
- RP-LC retention time: 682 s

Compound: CC(C)(C)C(=O)Oc1ccc(S(=O)(=O)Nc2ccccc2C(=O)NCC(=O)O)cc1
- RP-LC retention time: 961 s

Compound: COc1cc(C(=O)Nc2nc(-c3ccc(C)cc3)c(C)s2)c(Br)c(OC)c1OC
- RP-LC retention time: 1190 s

Compound: Cc1ccccc1CC(=O)Nc1ccc2c(c1)CCC(=O)N2CC(C)C
- RP-LC retention time: 910 s

Compound: CCC(=O)Nc1ccc(-n2cnc(C(=O)NC3CCCCC3)c2)nc1
- RP-LC retention time: 731 s

Compound: CCOc1ccc(NC(=O)C2CCCN(c3ncnc4c3nc3n4CCCCC3)C2)cc1 (stereo not given)
- RP-LC retention time: 732 s

Compound: CCN1C(=O)C2CC3(CCN(Cc4cn(C)c5ccc(OC)cc45)CC3)CN2C1=O (stereo not given)
- RP-LC retention time: 584 s

Compound: O=C(Cc1ccc(F)cc1)NC1CCN(c2cc(-c3ccccc3)[nH]n2)C1 (stereo not given)
- RP-LC retention time: 706 s

— the METLIN SMRT retention time set (Domingo-Almenara et al. 2019)
